# From patent publication US20070117743A1, “New antitumoral compounds” (priority 2003, published 2007)
# Where a SMILES comes first, the peptide text is derived from it. Bridges are numbered along the chain shown (N, C = ends). [ ]: non-standard residue; d: D form. The star is where a group is joined. d(aIle) = CC[C@H](C)[C@@H](N)C(=O)O; d(aThr) = C[C@@H](O)[C@@H](N)C(=O)O; Hexanoyl(5-Me) = CC(C)CCCC(=O)*; Orn = NCCC[C@H](N)C(=O)O; Dhb = C/C=C(\N)C(=O)O
# How the values were obtained:
# Assay type in all cases: cell-based, human
# PANC-1 = assay: SRB colorimetric assay of cell growth and viability, PANC-1; details: 48 hours exposure; for CC50: read-out: LC50 PANC-1
# HT-29 = assay: SRB colorimetric assay of cell growth and viability, HT-29; details: 48 hours exposure; for GI50: read-out: GI50 HT-29; for CC50: read-out: LC50 HT-29
# SK-MEL-28 = assay: SRB colorimetric assay of cell growth and viability, SK-MEL-28; details: 48 hours exposure; for CC50: read-out: LC50 MEL-28
# HeLa = assay: SRB colorimetric assay of cell growth and viability, HeLa; details: 48 hours exposure; for CC50: read-out: LC50 HELA
# IGROV-1 = assay: SRB colorimetric assay of cell growth and viability, IGROV-1; details: 48 hours exposure
# LoVo-Dox = assay: SRB colorimetric assay of cell growth and viability, LoVo-Dox; details: 48 hours exposure; for CC50: read-out: LC50 LOVO-DOX
# How it was run: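 SRB staining (0.4% wt/vol in 1% acetic acid, 10 min, room temperature) of cells fixed with 50% TCA follows a 48-hour exposure to compound. Plating density is 5×10^3 cells/well, and the OD is taken at 490 nm.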
# DU-145 = assay: SRB colorimetric assay of cell growth and viability, DU-145; details: 48 hours exposure
# A-549 = assay: SRB colorimetric assay of cell growth and viability, A-549; details: 48 hours exposure; for GI50: read-out: GI50 A-549; for CC50: read-out: LC50 A-549
# K-562 = assay: SRB colorimetric assay of cell growth and viability, K-562; details: 48 hours exposure; for CC50: read-out: LC50 K-562
# HeLa-APL = assay: SRB colorimetric assay of cell growth and viability, HeLa-APL; details: 48 hours exposure; for CC50: read-out: LC50 HELA-APL
# IGROV-ET = assay: SRB colorimetric assay of cell growth and viability, IGROV-ET; details: 48 hours exposure; for CC50: read-out: LC50 IGROV-ET
# LoVo = assay: SRB colorimetric assay of cell growth and viability, LoVo; details: 48 hours exposure; for CC50: read-out: LC50 LOVO
# SK-BR-3 = assay: SRB colorimetric assay of cell growth and viability, SK-BR-3; details: 48 hours exposure
# LNCaP = assay: SRB colorimetric assay of cell growth and viability, LNCaP; details: 48 hours exposure; for GI50: read-out: GI50 LN-caP; for CC50: read-out: LC50 LN-caP
compound,measurement,setting,value
"C/C=C1\NC(=O)[C@H](Cc2ccccc2)NC(=O)[C@@H](C(C)C)NC(=O)[C@@H]([C@@H](C)CC)NC(=O)[C@H](NC(=O)[C@H](NC(=O)[C@H](CCCN)NC(=O)[C@H]2CCCN2C(=O)[C@H](NC(=O)[C@@H](NC(=O)[C@@H](NC(=O)[C@H](NC(=O)CCCC(C)C)C(C)C)[C@@H](C)O)C(C)C)C(C)C)[C@@H](C)CC)COC(=O)[C@H](C(C)C)NC1=O [Compound 3, [D-Ser^6]-KF] ({Hexanoyl(5-Me)}-[dV]TV[dV][dP][Orn][d(aIle)][dS][d(aIle)][dV]F[Dhb]V; ester 8-C)",GI50,PANC-1,3080 nM
same,TGI PANC-1,PANC-1,6.83E−06 Molar
same,CC50,PANC-1,≥ 6830 nM
same,TGI HT-29,HT-29,1.22E−06 Molar
same,GI50,HT-29,378 nM
same,CC50,HT-29,3520 nM
same,GI50,SK-MEL-28,1570 nM
same,TGI MEL-28,SK-MEL-28,2.66E−06 Molar
same,CC50,SK-MEL-28,4530 nM
same,GI50,HeLa,1350 nM
same,TGI HELA,HeLa,2.64E−06 Molar
same,CC50,HeLa,5210 nM
same,GI50,IGROV-1,455 nM
same,LC50 (concentration causing 50% net cell killing),IGROV-1,3160 nM
same,TGI IGROV,IGROV-1,1.27E−06 Molar
same,GI50,LoVo-Dox,179 nM
same,TGI LOVO-DOX,LoVo-Dox,3.37E−07 Molar
same,CC50,LoVo-Dox,637 nM
same,GI50,DU-145,833 nM
same,LC50 (concentration causing 50% net cell kill),DU-145,3440 nM
same,TGI DU-145,DU-145,1.69E−06 Molar
same,TGI A-549,A-549,2.46E−06 Molar
same,GI50,A-549,1360 nM
same,CC50,A-549,4470 nM
same,GI50,K-562,5080 nM
same,TGI K-562,K-562,6.83E−06 Molar
same,CC50,K-562,≥ 6830 nM
same,GI50,HeLa-APL,1370 nM
same,TGI HELA-APL,HeLa-APL,2.28E−06 Molar
same,CC50,HeLa-APL,3780 nM
same,GI50,IGROV-ET,264 nM
same,TGI IGROV-ET,IGROV-ET,6.38E−07 Molar
same,CC50,IGROV-ET,2110 nM
same,GI50,LoVo,189 nM
same,TGI LOVO,LoVo,3.64E−07 Molar
same,CC50,LoVo,758 nM
same,GI50,SK-BR-3,406 nM
same,LC50,SK-BR-3,2450 nM
same,TGI SK-BR-3,SK-BR-3,6.23E−07 Molar
same,TGI LN-caP,LNCaP,1.12E−06 Molar
same,GI50,LNCaP,372 nM
same,CC50,LNCaP,2940 nM
"C/C=C1\NC(=O)[C@H](Cc2ccccc2)NC(=O)[C@@H](C(C)C)NC(=O)[C@@H]([C@@H](C)CC)NC(=O)[C@H](NC(=O)[C@H](NC(=O)[C@H](CCCN)NC(=O)[C@H]2CCCN2C(=O)[C@H](NC(=O)[C@@H](NC(=O)[C@@H](NC(=O)[C@H](NC(=O)CCCC(C)C)C(C)C)C(C)C)C(C)C)C(C)C)[C@@H](C)CC)[C@@H](C)OC(=O)[C@H](C(C)C)NC1=O [Compound 6, [Val^12]-KF] ({Hexanoyl(5-Me)}-[dV]VV[dV][dP][Orn][d(aIle)][d(aThr)][d(aIle)][dV]F[Dhb]V; ester 8-C)",GI50,PANC-1,1020 nM
same,TGI PANC-1,PANC-1,1.96E−06 Molar
same,CC50,PANC-1,3800 nM
same,TGI HT-29,HT-29,2.68E−07 Molar
same,GI50,HT-29,148 nM
same,CC50,HT-29,485 nM
same,GI50,SK-MEL-28,175 nM
same,TGI MEL-28,SK-MEL-28,2.94E−07 Molar
same,CC50,SK-MEL-28,492 nM
same,GI50,HeLa,144 nM
same,TGI HELA,HeLa,2.63E−07 Molar
same,CC50,HeLa,480 nM
same,GI50,IGROV-1,150 nM
same,LC50 (concentration causing 50% net cell killing),IGROV-1,598 nM
same,TGI IGROV,IGROV-1,2.99E−07 Molar
same,GI50,LoVo-Dox,159 nM
same,TGI LOVO-DOX,LoVo-Dox,2.83E−07 Molar
same,CC50,LoVo-Dox,503 nM
same,GI50,DU-145,165 nM
same,LC50 (concentration causing 50% net cell kill),DU-145,523 nM
same,TGI DU-145,DU-145,2.94E−07 Molar
same,TGI A-549,A-549,8.54E−07 Molar
same,GI50,A-549,257 nM
same,CC50,A-549,2360 nM
same,GI50,K-562,661 nM
same,TGI K-562,K-562,1.44E−06 Molar
same,CC50,K-562,3070 nM
same,GI50,HeLa-APL,379 nM
same,TGI HELA-APL,HeLa-APL,1.04E−06 Molar
same,CC50,HeLa-APL,3110 nM
same,GI50,IGROV-ET,154 nM
same,TGI IGROV-ET,IGROV-ET,2.91E−07 Molar
same,CC50,IGROV-ET,549 nM
same,GI50,LoVo,133 nM
same,TGI LOVO,LoVo,2.48E−07 Molar
same,CC50,LoVo,463 nM
same,GI50,SK-BR-3,102 nM
same,LC50,SK-BR-3,482 nM
same,TGI SK-BR-3,SK-BR-3,2.22E−07 Molar
same,TGI LN-caP,LNCaP,1.00E−06 Molar
same,GI50,LNCaP,313 nM
same,CC50,LNCaP,2780 nM
